Results from patent EP1146895B1, “THROMBOPOIETIN COMPOSITIONS FOR INCREASING CIRCULATING PLATELETS” (BOARD OF REGENTS, THE UNIVERSITY OF TEXAS SYSTEM, priority 1999, dated 2000).

How the values were obtained:
[1] = tested on: platelets; assay: Reversible block of in vitro ADP- and collagen-induced aggregation by second messenger effectors; format: cell-based; conditions: agonist (ADP, collagen)-induced
Text: The reversible inhibition induced by this formulation effectively reduces the development of the platelet storage lesion when platelets are cryopreserved. The following is a brief description of the second messenger pathways manipulated in order to control activation of platelets during storage, and the specific inhibitors used to abrogate the initiation of the respective pathways.

[2] = tested on: carboplatin-induced thrombocytopenia; assay: Phase I/II study of subcutaneous rhTPO prior to and following carboplatin in gynecologic malignancy: hematologic effects; conditions: for Number (%) of Patients Requiring Platelet Transfusions: Cycle-1 (Carboplatin) or Cycle-2 (Carboplatin+ rhTPO)
Text: Carboplatin is effective in advanced-stage platin-sensitive recurrent disease; however, cumulative thrombocytopenia is frequently dose-limiting. […] During dose-escalation phase, rhTPO was given by S.C. injection as a single dose (0.6, 1.2, 2.4, 3.6 mcg/kg) prior to carboplatin and for four doses following a second cycle of carboplatin. […]
The inventor performed a phase I/II study of rhTPO prior to and following carboplatin in 29 patients with advanced gynecologic malignancy. During the dose-escalation phase, rhTPO was administered by subcutaneous injection as a single dose (0.6, 1.2, 2.4, and 3.6 mcg/kg) prior to carboplatin, and for four doses following a second cycle of carboplatin. During dose-expansion phase (n=12). rhTPO was used at the optimal biologic dose only as a secondary prophylaxis for severe thrombocytopenia.
The study included two components, a dose-escalation (safety) component and dose-expansion (activity) component using the optimal dose. During the dose-escalation part of this trial, rhTPO was administered as a single dose by subcutaneous injection 3 weeks before chemotherapy in order to evaluate clinical tolerance and the hematopoietic effects of rhTPO alone. […] Thus Cycle- 1 (chemotherapy alone) served as an internal control for each patient for Cycle-2 (chemotherapy with rhTPO).
At least three patients were entered at each dose level of rhTPO (0.6, 1.2, 2.4, and 3.6 mcg/m^2/d). […] In the subsequent cycles, rhTPO was used at OBD as a secondary prophylaxis by same schedule [days 2, 4, 6, 8 (n=6)] or by a modified schedule [days -1, 1, 3, 5 (n=6)]. The latter schedule was used to assess whether earlier administration of TPO can further augment the degree of protection.
Patients received platelet transfusions for severe thrombocytopenia (i.e. platelet count <20,000/mm^3), RBC transfusions for anemia (i.e. hemoglobin [Hb]<8 gm/dL), and antibiotics for neutropenic fever (i.e. temperature ≥38.3°C and absolute neutrophil count <500/mm^3) or when clinically indicated. The use of G-CSF was not allowed during the first two cycles of chemotherapy, but was allowed in the later cycles (3 - 6) only if clinically indicated (i.e. as a secondary prophylaxis in those patients who experienced prolonged neutropenia or delayed neutrophil recovery).
(§1) Before and during the course of the clinical trial, patients were monitored with complete history, physical examinations, and laboratory tests including complete blood cell counts, serum chemistry, urinalysis, chest X-ray, and electrocardiograph. Blood counts were performed three times a week until the expected nadir period was reached and then daily until the counts had recovered. Serum samples were examined for antibodies reactive to full length TPO three times prior to study and weekly while on study. Positive sera (optical density ratio ≥1.5) were further analyzed by anti-truncated TPO antibody assay, C-mpl blocking assay, and cell-proliferation biologic assay. Patients positive in all assays were considered to be at risk for antibody-induced thrombocytopenia. Bone marrow (BM) aspiration and biopsy were done in all patients before, and one week after rhTPO treatment, and in selected patients at a later time point (day 10 or 14) in the prechemotherapy cycle. Tumor response was evaluated by physical examination, tumor marker (CA-125) evaluation, and imaging studies performed at periodic intervals.
Hematopoietic toxicity from Cycle-1 1 of chemotherapy (no rhTPO) was compared with the results from Cycle-2 (with rhTPO) by means of a paired T test for continuously measured variables.

[3] = tested on: gynecologic malignancy; assay: Phase I/II carboplatin study: tumor response; format: in vivo, humans; conditions: carboplatin AUC 11 with or without rhTPO, 25 evaluable patients
Method: as §1

[4] = Phase I/II carboplatin study: clinical tolerance, adverse events, anti-TPO antibodies; format: in vivo, humans
[5] = tested on: recurrent ovarian cancer; conditions: 800 mg/m^2 without cytokine support, 30 patients (Ozols et al., 1987); cited from earlier work
[6] = 22 patients, C-1 (C) or C-2 (C+T), mean ± SEM
[7] = Cycle-1 Carboplatin alone or Cycle-2 Carboplatin + rhTPO, n=27

In the case of `N=C(N)NC(=O)c1nc(Cl)c(N)nc1N` [Amiloride], the “effect on in vitro aggregation of platelets” value [1] is reported as “effectively and reversibly blocks”.
In the case of `Nc1ncnc2c1ncn2[C@@H]1O[C@H](CO)[C@@H](O)[C@H]1O` [Adenosine], the “effect on in vitro aggregation of platelets” value [1] is reported as “reversibly inhibits”.
For `N.N.O=C([O-])C1(C(=O)[O-])CCC1.[Pt+2]` [Carboplatin], the “Nadir PLT” value ([2]; 22 patients, all rhTPO doses, C-1 carboplatin alone (C), C-2 carboplatin + rhTPO (C+T), mean ± SEM) was 20 ±5 x10^3/mm^3, the “No. (%) of PTS transfused” value ([2]; 22 patients, C-1 (C) or C-2 (C+T)) was 11 (50) and the “Days PLT <50 × 10^3/mm^3” value [2, 6] was 6.3 ±1.0 days. The “Days PLT <100 × 10^3/mm^3” value [2, 6] was 10.3 ± 1.3 days, the “Number (%) of Patients Requiring Platelet Transfusions” value ([2]; All Patients (0.6 - 3.6 mcg/kg) n=27) was 16 (59%) and the “Number (%) of Patients Requiring Platelet Transfusions” value ([2]; Optimal Biologic Dose (1.2 mcg/kg) n=16) was 12(75%). The “incidence of thrombocytopenia requiring platelet transfusions” value ([2]; cycle-1 without rhTPO, secondary prophylaxis patients) was 10 of 12, the major tumor response [3] was 50% and the “Fever, number of patients” value ([4]; Cycle-1 Carboplatin alone n=27 or Cycle-2 Carboplatin + rhTPO n=27) was 12. The “Anorexia, number of patients” value [4, 7] was 14, the “Anorexia, number of patients experiencing grade ≥3 toxicity” value [4, 7] was 1 and the “Bone pain, number of patients” value [4, 7] was 7. For the same compound, the “Chills, number of patients” value [4, 7] was 8, the “Constipation, number of patients” value [4, 7] was 11 and the “Constipation, number of patients experiencing grade ≥3 toxicity” value [4, 7] was 2. For the same compound, the “Diarrhea, number of patients” value [4, 7] was 8, the “Diarrhea, number of patients experiencing grade ≥3 toxicity” value [4, 7] was 1 and the “Fatigue, number of patients” value [4, 7] was 12. The “Fatigue, number of patients experiencing grade ≥3 toxicity” value [4, 7] was 10, the “Headache, number of patients” value [4, 7] was 11 and the “Headache, number of patients experiencing grade ≥3 toxicity” value [4, 7] was 4. For the same compound, the “Mucositis, number of patients” value [4, 7] was 4, the “Myalgia, number of patients” value [4, 7] was 10 and the “Nausea, number of patients” value [4, 7] was 18. The “Nausea, number of patients experiencing grade ≥3 toxicity” value [4, 7] was 3, the “Vomiting, number of patients” value [4, 7] was 12 and the “Vomiting, number of patients experiencing grade ≥3 toxicity” value ([4]; Cycle-1 Carboplatin alone, n=27) was 1. The Major responses [5] was 27%.
